From patent publication US11897880B2, “7,8-dihydrobenzo[e]pyrido[3,4-c]azocine-2,5(3H,6H)-dione derivatives useful as a factor XIa inhibitors” (Janssen Pharmaceutica NV, priority 2021, dated 2024)
pIC50, pKi: −log10 of the molar value. Where two headings read alike, the source gives them in different places.

Tests used:
human plasma kallikrein = human plasma kallikrein (Homo sapiens, UniProt P03952); assay: Kallikrein inhibition assay utilizing a quenched AMC peptide substrate (FLINT); type: biochemical; settings: 30 min preincubation, 50 μM Z-Gly-Pro-Arg-AMC, 2 nM kallikrein
human plasma kallikrein, sequence (P03952 391-638 limits assumed): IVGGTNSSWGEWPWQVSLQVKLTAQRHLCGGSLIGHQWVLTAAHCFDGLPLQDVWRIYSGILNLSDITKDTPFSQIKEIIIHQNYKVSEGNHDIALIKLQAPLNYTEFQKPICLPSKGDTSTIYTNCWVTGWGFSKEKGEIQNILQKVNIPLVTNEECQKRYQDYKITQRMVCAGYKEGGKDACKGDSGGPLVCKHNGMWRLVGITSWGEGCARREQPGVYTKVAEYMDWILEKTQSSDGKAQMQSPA
human plasma kallikrein, sequence (P03952 20-390 partner limits assumed): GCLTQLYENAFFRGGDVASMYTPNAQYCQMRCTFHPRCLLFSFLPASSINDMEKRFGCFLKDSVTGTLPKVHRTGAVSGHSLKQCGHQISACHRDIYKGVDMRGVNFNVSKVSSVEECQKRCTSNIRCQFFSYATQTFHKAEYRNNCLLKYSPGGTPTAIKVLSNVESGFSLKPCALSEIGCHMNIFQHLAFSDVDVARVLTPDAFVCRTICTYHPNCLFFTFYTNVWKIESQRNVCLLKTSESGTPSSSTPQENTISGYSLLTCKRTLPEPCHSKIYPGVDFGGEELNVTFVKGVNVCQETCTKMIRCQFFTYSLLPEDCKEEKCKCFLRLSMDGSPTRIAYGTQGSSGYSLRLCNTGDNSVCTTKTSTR
From the text: Biological Example 2: Kallikrein Inhibition Assay Utilizing a Quenched AMC Peptide Substrate
A fluorescence intensity (FLINT) based assay was used to monitor inhibition of human plasma kallikrein. The peptide substrate, Z-Gly-Pro-Arg-AMC (Purchased from Bachem; Catalog #1-1150) was chosen based on its relatively low KM for kallikrein which enables running the assay at lower substrate concentrations to control background fluorescence.
The Kallikrein FLINT assay was used with the following Z-Gly-Pro-Arg-AMC assay buffer: 50 mM Tris, pH 7.5, 100 mM NaCl, 5 mM CaCl2), 0.1 mg/mL BSA, 0.03% CHAPS. Assay buffer was prepared by mixing all ingredients fresh. 2× Z-Gly-Pro-Arg-AMC peptide substrate was prepared by diluting 10 mM stock into 1× assay buffer for a 100 μM working concentration (50 μM final concentration). The 2× kallikrein stock solution was prepared by diluting 14.76 μM stock in 1× assay buffer for a 4 nM working stock solution (2 nM final concentration).
Test compound(s) were run in an 11-point, 3-fold serial dilution with a final top compound concentration of 1 μM. Final DMSO in assay was 2%. Plasma kallikrein was pre-incubated for 30-minute with compound and then 50 μM substrate was added to initiate the reaction. The assay was run with kinetic (KIN) reads at 5 min intervals over 30 minutes. The time course was linear using 2 nM kallikrein greater than 30 minutes. More specifically, the assay was run as follows: • 100 nL of 0.1 mM test compound was dispensed into black 384-well non-binding Greiner BioOne 784900 plate for 1 μM final concentration; • 5 μL of 1× assay buffer was dispensed to columns 24 (low control) and 5 μL 2× human kallikrein enzyme solution was dispensed to columns 1-23 (column 23 high control); • the plate was centrifuged with a “cover” plate at 500 rpm for 1 min • the plate was pre-incubated for 30 minutes at room temperature with plate covered; • 5 μL of 2× Z-Gly-Pro-Arg-AMC peptide substrate was dispensed into the entire plate, columns 1-24; • the plate was centrifuged with a “cover” plate at 500 rpm for 1 min; the plate was read monitoring fluorescence intensity on the BMG PHERAStar at room temperature, using fluorescence module 340 nm/440 nm.
Percent inhibition (IC50) curves were generated per compound tested, and data was analyzed using a 4-parameter logistic fit using GeneData Screener. The relative fluorescence unit (RFU) values were normalized to percent inhibition using the following equation: % inhibition=((HC−LC)−(compound−LC)/(HC−LC))*100 where LC—low control=mean signal of human kallikrein enzyme or 100% inhibition of human kallikrein enzyme; HC—high control=mean signal of […]+Z-Gly-Pro-Arg-AMC peptide substrate with DMSO only.
An 11-point dose response curve for the test compound(s) was generated using GENDATA to determine IC50 value based on the following equation: Y=Bottom+(Top−Bottom)/(1+10^((log IC50−X)*HillSlope)) • where Y is the % inhibition in the presence of X inhibitor concentration, Top=high control=mean signal of human kallikrein enzyme+Z-Gly-Pro-Arg-AMC peptide substrate with DMSO only; Bottom=low control−mean signal of no human kallikrein enzyme or 100% inhibition of human kallikrein enzyme; HillSlope—Hill coefficient; and IC50=concentration of compound with 50% inhibition in relation to top/high control.
(§1) Representative compounds of formula (I) of the present invention were tested according to the procedure described in Biological Example 1 and Biological Example 2 above, with results as listed in Table 3, below.

Factor XIa = Factor XIa (Homo sapiens, UniProt P03951); assay: Factor XIa inhibition assay utilizing a fluorophore-quencher pair peptide substrate (FLINT); type: biochemical; settings: for IC50 / Ki: cells that print μM themselves in the nM column; for IC50: same assay conditions; for IC50 / pIC50: read-out: FXIa IC50; for pKi / Ki: read-out: FXIa Ki; for pIC50: 30 min preincubation, 5Fam-KLTRAETV-K5Tamra substrate 15 μM final, kinetic reads
Factor XIa, sequence (P03951 388-625 limits assumed): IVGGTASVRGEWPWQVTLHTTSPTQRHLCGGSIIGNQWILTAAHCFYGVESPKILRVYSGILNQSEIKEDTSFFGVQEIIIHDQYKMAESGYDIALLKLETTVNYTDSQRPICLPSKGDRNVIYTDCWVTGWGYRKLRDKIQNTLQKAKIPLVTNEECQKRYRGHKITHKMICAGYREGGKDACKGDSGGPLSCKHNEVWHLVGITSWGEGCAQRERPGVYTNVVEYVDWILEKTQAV
Factor XIa, sequence (P03951 19-387 partner limits assumed): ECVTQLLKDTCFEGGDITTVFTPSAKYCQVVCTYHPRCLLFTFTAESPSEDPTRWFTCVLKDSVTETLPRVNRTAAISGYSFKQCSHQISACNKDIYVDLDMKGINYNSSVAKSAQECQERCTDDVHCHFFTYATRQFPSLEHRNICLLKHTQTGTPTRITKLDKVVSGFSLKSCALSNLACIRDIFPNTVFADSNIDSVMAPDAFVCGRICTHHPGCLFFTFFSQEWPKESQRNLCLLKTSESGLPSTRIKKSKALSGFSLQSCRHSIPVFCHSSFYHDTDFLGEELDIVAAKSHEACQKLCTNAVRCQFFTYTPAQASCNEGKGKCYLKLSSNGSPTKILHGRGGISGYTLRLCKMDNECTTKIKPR
From the text: Biological Example 1: Factor XIa Inhibition Assay Utilizing a Fluorophore-Quencher Pair Peptide Substrate
A fluorescence intensity (FLINT) based assay was used to monitor inhibition of Factor XIa. The peptide substrate, 5Fam-KLTRAETV-K5Tamra (purchased from New England Peptide) was chosen based on the FXI sequence. Conversion of zymogen FXI to its activated form, FXIa, occurs by proteolytic cleavage by […] at two sites, Arg146 and Arg180. The custom peptide used in this assay was based on the Arg146 cleavage site of FXI. The peptide substrate was designed with a fluorophore-quencher pair, where the fluorescence is quenched until FXIa cleaves the 8-mer peptide after the Arg residue.
The Factor XIa FLINT assay was used with the following 5Fam-KLTRAETV-K5Tamra assay buffer: 50 mM Tris, pH 7.5, 100 mM NaCl, 5 mM CaCl2), 0.1 mg/mL BSA, 0.03% CHAPS. Assay buffer was prepared by mixing all ingredients fresh. 5Fam-KLTRAETV-K5Tamra peptide substrate was first prepared at 10 mM in 100% DMSO, then diluted to 3 mM in 100% DMSO. Assay buffer was then added directly to the 3 mM stock of substrate to prepare the 30 μM 2× working concentration (15 μM final concentration). The 2× Factor XIa stock solution was prepared by diluting 6.562 μM stock in 1× assay buffer for a […].
Test compound(s) were run in an 11-point, 3-fold serial dilution with a final top compound concentration of 100 nM. Final DMSO in assay was 2%. FXIa was preincubated with compound for 30-minutes and then substrate was added to initiate the reaction. The assay was run with kinetic (KIN) reads at 5 min intervals over 30 minutes. The time course was linear using […] FXIa greater than 30 minutes. More specifically, the assay was run as follows: • 100 nL of 0.01 mM test compound was dispensed into black 384-well non-binding Greiner BioOne 784900 plate for 0.1 μM final concentration; • 5 μL of 1× assay buffer was dispensed to column 24 (low control) and 5 μL 2× Factor XIa solution was dispensed to columns 1-23 (column 23 high control); • the plate was centrifuged with a “cover” plate at 500 rpm for 1 min • the plate was pre-incubated for 30 minutes at room temperature with plate covered; • 5 μL of 2×5Fam-KLTRAETV-K5Tamra peptide substrate was dispensed into the entire plate, columns 1-24; • the plate was centrifuged with a “cover” plate at 500 rpm for 1 min; • the plate was read monitoring fluorescence intensity on the BMG PHERAStar at room temperature, using fluorescence module 485 nm/520 nm.
Percent inhibition (IC50) curves were generated per compound tested, and data was analyzed using a 4-parameter logistic fit using GeneData Screener. The relative fluorescence unit (RFU) values were normalized to percent inhibition using the following equation: % inhibition=((HC−LC)−(compound−LC)/(HC−LC))*100
where LC−low control=mean signal of no Factor XIa or 100% inhibition of Factor XIa; HC−high control=mean signal of Factor XIa+5Fam-KLTRAETV-K5Tamra peptide substrate with DMSO only.
An 11-point dose response curve for the test compound(s) was generated using GENDATA to determine IC50 value based on the following equation: Y=Bottom+(Top−Bottom)/(1+10^((log IC50−X)*HillSlope))
where Y is the % inhibition in the presence of X inhibitor concentration, Top=high control=mean signal of Factor XIa+5Fam-KLTRAETV-K5Tamra peptide substrate with DMSO only; Bottom=low control−mean signal of no Factor XIa or 100% inhibition of Factor XIa; HillSlope−Hill coefficient; and IC50=concentration of compound with 50% inhibition in relation to top/high control.
as §1

pIC50 (human plasma kallikrein)	IC50 (Factor XIa) [µM]	pKi (Factor XIa)	pIC50 (Factor XIa)	Ki (Factor XIa) [µM]	SMILES
< 5.00	1.2	6.22			CC1(C)Cc2ccc(Cl)c(F)c2-c2cc(=O)n3c(c2C(=O)N1)CC[C@@H]3c1ncc(-c2ccc(N)nc2F)[nH]1 (single isomer, unassigned) [Compound 21, (R*)-12-(5-(6-amino-2-fluoropyridin-3-yl)-1H-imidazol-2-yl)-7-chloro-8-fluoro-3,3-dimethyl-3,4,13,14-tetrahydrobenzo[5,6]azocino[4,3-g]indolizine-1,10(2H,12H)-dione]
< 5.00		~6.41	~6.11		CC1(C)Cc2ccc(Cl)c(F)c2-c2cc(=O)n3c(c2C(=O)N1)CC[C@@H]3c1ncc(-c2ccc(N)nc2F)[nH]1 (single isomer, unassigned) [Compound 28, (R*)-12-(5-(6-amino-2-fluoropyridin-3-yl)-1H-imidazol-2-yl)-7-chloro-8-fluoro-3,3-dimethyl-3,4,13,14-tetrahydrobenzo[5,6]azocino[4,3-g]indolizine-1,10(2H,12H)-dione]
6.46		9.40	9.10		CC1(C)Cc2ccc(Cl)c(F)c2-c2cc(=O)n3c(c2C(=O)N1)CC[C@H]3c1ncc(-c2ccc(N)nc2F)[nH]1 (single isomer, unassigned) [Compound 29, (S*)-12-(5-(6-amino-2-fluoropyridin-3-yl)-1H-imidazol-2-yl)-7-chloro-8-fluoro-3,3-dimethyl-3,4,13,14-tetrahydrobenzo[5,6]azocino[4,3-g]indolizine-1,10(2H,12H)-dione]
< 5.00	~5.75			~2.87	Nc1ccc(-c2cnc(C3CCc4c5c(cc(=O)n43)-c3c(ccc(Cl)c3F)-c3ccncc3NC5=O)[nH]2)c(F)n1 (single isomer, unassigned) [Compound 36, (S*)-3-(5-(6-amino-2-fluoropyridin-3-yl)-1H-imidazol-2-yl)-8-chloro-7-fluoro-2,3-dihydrobenzo[5,6]pyrido[4′,3′:7,8]azocino[4,3-g]indolizine-5,16(1H,15H)-dione]
5.40		~7.41	~7.11		Nc1ccc(-c2cnc(C3CCc4c5c(cc(=O)n43)-c3c(ccc(Cl)c3F)-c3ccncc3NC5=O)[nH]2)c(F)n1 (single isomer, unassigned) [Compound 37, (R*)-3-(5-(6-amino-2-fluoropyridin-3-yl)-1H-imidazol-2-yl)-8-chloro-7-fluoro-2,3-dihydrobenzo[5,6]pyrido[4′,3′:7,8]azocino[4,3-g]indolizine-5,16(1H,15H)-dione]
5.79		7.73	7.43		Nc1ccc(-c2cnc(C3CCc4c5c(cc(=O)n43)-c3c(ccc(Cl)c3F)-c3ccccc3NC5=O)[nH]2)c(F)n1 (single isomer, unassigned) [Compound 38, (R*)-3-(5-(6-amino-2-fluoropyridin-3-yl)-1H-imidazol-2-yl)-8-chloro-7-fluoro-2,3-dihydrodibenzo[5,6:7,8]azocino[4,3-g]indolizine-5,16(1H,15H)-dione]
< 5.00	> 10			> 5	Nc1ccc(-c2cnc(C3CCc4c5c(cc(=O)n43)-c3c(ccc(Cl)c3F)-c3ccccc3NC5=O)[nH]2)c(F)n1 (single isomer, unassigned) [Compound 39, (S*)-3-(5-(6-amino-2-fluoropyridin-3-yl)-1H-imidazol-2-yl)-8-chloro-7-fluoro-2,3-dihydrodibenzo[5,6:7,8]azocino[4,3-g]indolizine-5,16(1H,15H)-dione]
7.05		10.00	9.52		Nc1ccc(-c2cnc(C3CCc4c5c(cc(=O)n43)-c3c(ccc(Cl)c3F)CC3(CC3)NC5=O)[nH]2)c(F)n1 (single isomer, unassigned) [Compound 55]
